The results in this text go back to PubChem BioAssay (NCI).

Some test systems named below: SN12C renal; M14 melanoma; HOP-92 NSCLC; HOP-62 NSCLC; SF-268 CNS; 786-0 renal; HCT-116 colon; NCI-H522 lung; SK-MEL-2 melanoma; RXF 393 renal.
Assay in all cases: NCI anticancer screen, dose series, 48 h

“And” between values parts separate entries of the source, which are not always exact repeats. Equal entries are not always repeated.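 Results reflect a 48-hour exposure of cells in 96-well plates to compound at five concentrations. Abbreviation: GI50, concentration required for 50% inhibition of growth. TGI marks complete inhibition of growth.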

With `COc1cc(N2CCC(N(C)C)CC2)ccc1Nc1ncc(Cl)c(Nc2ccccc2P(C)(C)=O)n1`, the GI50 in the assay on SN12C renal was 0.971 µM and 0.398 µM; with M14 melanoma, 2.23 µM and 0.503 µM; with HOP-92 NSCLC, 0.0882 µM; in the assay with HOP-62 NSCLC, 0.384 µM and 0.232 µM; with SF-268 CNS it was 1.17 µM and 0.386 µM; in the assay on 786-0 renal, 1.12 µM and 0.483 µM. For the same compound, the GI50 in the assay on HCT-116 colon was 1.4 µM and 0.183 µM; in the assay on NCI-H522 lung, 0.483 µM and 0.115 µM; in the assay with SK-MEL-2 melanoma, 1.14 µM and 0.728 µM; with RXF 393 renal, 0.442 µM and 0.202 µM. Also, the TGI was more than 72.8 µM with SN12C renal; 15.3 µM and > 4.88 µM in the assay with M14 melanoma; 0.918 µM with HOP-92 NSCLC; 4.72 µM and > 10 µM with HOP-62 NSCLC; 5.04 µM and 2.76 µM in the assay on SF-268 CNS; 10 µM and > 6.3 µM with 786-0 renal. The TGI with HCT-116 colon is more than 39.2 µM; in the assay with NCI-H522 lung, 6.08 µM and 3.32 µM; with SK-MEL-2 melanoma, 4.16 µM and 2.99 µM; in the assay on RXF 393 renal, 1.88 µM and 0.874 µM.

For the compound `N#Cc1nc(-c2cccc(Br)c2)cc(-c2ccc(Nc3nc(N4CCCCC4)nc(N4CCCCC4)n3)cc2)c1N`, the GI50 with SN12C renal was 2.82 µM; in the assay on M14 melanoma it was 2.84 µM; in the assay with HOP-92 NSCLC, 1.68 µM; in the assay with HOP-62 NSCLC, 2.64 µM; in the assay with SF-268 CNS, 3.27 µM; in the assay with 786-0 renal it was 3.29 µM. In addition, the GI50 in the assay on HCT-116 colon was 1.55 µM; with NCI-H522 lung it was 1.78 µM; in the assay on SK-MEL-2 melanoma, 2.09 µM; in the assay with RXF 393 renal it was 1.34 µM. Besides, the TGI with SN12C renal is more than 100 µM; with M14 melanoma it was 7.5 µM; in the assay on HOP-92 NSCLC it was 3.36 µM; in the assay with HOP-62 NSCLC, 8.76 µM; with SF-268 CNS, 21.5 µM; in the assay on 786-0 renal, more than 100 µM. In addition, the TGI in the assay on HCT-116 colon turned out to be 3.19 µM; in the assay on NCI-H522 lung it was 4.72 µM; in the assay on SK-MEL-2 melanoma, 4.61 µM; in the assay on RXF 393 renal, 2.99 µM.

In the case of `N#Cc1c(NC(=O)c2cccs2)[n+]([O-])c2ccccc2[n+]1[O-]`, the GI50 in the assay on SN12C renal is more than 100 µM; in the assay with M14 melanoma, more than 100 µM; in the assay on HOP-92 NSCLC, 81.7 µM; in the assay on HOP-62 NSCLC it was more than 100 µM; with SF-268 CNS, more than 100 µM; in the assay on 786-0 renal it was more than 100 µM. Also, the GI50 in the assay on HCT-116 colon, in the assay on NCI-H522 lung, with SK-MEL-2 melanoma and with RXF 393 renal was more than 100 µM throughout. Moreover, the TGI with SN12C renal, with M14 melanoma, with HOP-92 NSCLC, in the assay on HOP-62 NSCLC, in the assay with SF-268 CNS and in the assay on 786-0 renal was more than 100 µM throughout. In addition, the TGI with HCT-116 colon, in the assay with NCI-H522 lung, in the assay on SK-MEL-2 melanoma and with RXF 393 renal was more than 100 µM in each case.

As to `C[C@]12CC[C@H]3[C@@H](CCC4=CC(=O)CC[C@@H]43)[C@@H]1CC[C@@H]2OC1(O)C(=O)c2ccccc2C1=O`, the TGI in the assay on SN12C renal is 34.4 µM; in the assay with M14 melanoma, more than 100 µM; in the assay with HOP-92 NSCLC it was more than 100 µM; with HOP-62 NSCLC, more than 100 µM; in the assay on SF-268 CNS, more than 100 µM; in the assay with 786-0 renal it was 83.5 µM. For the same compound, the TGI was 30.1 µM with HCT-116 colon, 35.9 µM in the assay on NCI-H522 lung, more than 100 µM in the assay with SK-MEL-2 melanoma and more than 100 µM in the assay on RXF 393 renal.

For `CSC(=S)N(C)c1nc(=[N+](C)C)ss1`, the TGI in the assay on SN12C renal, in the assay with M14 melanoma, in the assay on HOP-92 NSCLC, with HOP-62 NSCLC, in the assay with SF-268 CNS and in the assay on 786-0 renal was more than 100 µM each time. The TGI with HCT-116 colon, with NCI-H522 lung, with SK-MEL-2 melanoma and in the assay with RXF 393 renal was more than 100 µM throughout.

As for `c1ccc(-c2nc(Nc3ccc(-c4nc5ccccc5[nH]4)cc3)nc(N3CCOCC3)n2)cc1`, the GI50 was 1.74 µM with SN12C renal; 1.34 µM in the assay on M14 melanoma; 1.38 µM in the assay with HOP-92 NSCLC; 1.73 µM in the assay with HOP-62 NSCLC; 1.64 µM in the assay on SF-268 CNS; 0.257 µM in the assay on 786-0 renal. Also, the GI50 in the assay on HCT-116 colon is 0.394 µM; in the assay with NCI-H522 lung, 2.1 µM; with SK-MEL-2 melanoma, 1.97 µM; in the assay with RXF 393 renal, 0.501 µM. The TGI in the assay on SN12C renal is 3.83 µM; with M14 melanoma, 2.9 µM; with HOP-92 NSCLC, 3.05 µM; with HOP-62 NSCLC, 3.52 µM; in the assay on SF-268 CNS it was 3.24 µM; in the assay on 786-0 renal it was 1.25 µM. Moreover, the TGI in the assay with HCT-116 colon is 1.62 µM; in the assay with NCI-H522 lung, 3.92 µM; in the assay with SK-MEL-2 melanoma, 3.59 µM; in the assay on RXF 393 renal it was 2.12 µM.

Take `Cc1cc2c(C(C)C)c(O)c(O)c3coc(/c1=c1/c(C)cc4c(C(C)C)c(=O)c(=O)c5coc1c45)c32`: the TGI with SN12C renal was found to be 23.7 µM; with M14 melanoma, 25.5 µM; in the assay on HOP-92 NSCLC, 7.11 µM; with HOP-62 NSCLC, 23.7 µM; in the assay on SF-268 CNS, 24.1 µM; in the assay on 786-0 renal, 22.1 µM. The TGI with HCT-116 colon came to 10.8 µM; in the assay on NCI-H522 lung, 19 µM; in the assay on SK-MEL-2 melanoma, 17.9 µM; with RXF 393 renal, 23.1 µM.

On to `Cc1cccc2c3c(sc12)C(c1ccc(Cl)cc1)C(C#N)=C(/N=C/c1ccc(Cl)cc1)O3` (stereo not given), for which the GI50 in the assay on SN12C renal is 0.623 µM; in the assay with M14 melanoma, 0.308 µM; in the assay on HOP-92 NSCLC it was 6.04 µM; in the assay on HOP-62 NSCLC, 0.573 µM; in the assay with SF-268 CNS it was 1.93 µM; in the assay on 786-0 renal it was 0.653 µM. The GI50 in the assay on HCT-116 colon was 0.402 µM; in the assay with NCI-H522 lung, 0.304 µM; in the assay on SK-MEL-2 melanoma it was 2.86 µM; in the assay on RXF 393 renal, 0.24 µM. The TGI is more than 100 µM in the assay with SN12C renal; more than 52.6 µM with M14 melanoma; 36.7 µM with HOP-92 NSCLC; 36.5 µM in the assay on HOP-62 NSCLC; 46.2 µM in the assay with SF-268 CNS; 27.8 µM with 786-0 renal. Moreover, the TGI in the assay on HCT-116 colon was more than 100 µM; in the assay on NCI-H522 lung, 3.12 µM; in the assay on SK-MEL-2 melanoma, 29.9 µM; in the assay with RXF 393 renal, 0.776 µM.

Take `S=C(Nc1ccccc1)c1ccccn1`: the GI50 is 95.9 µM with SN12C renal; 28 µM in the assay on M14 melanoma; 54.3 µM in the assay with HOP-92 NSCLC; 81.9 µM in the assay on HOP-62 NSCLC; 77.3 µM with SF-268 CNS; more than 100 µM in the assay on 786-0 renal. Moreover, the GI50 is 51.3 µM with HCT-116 colon, 14 µM in the assay with NCI-H522 lung, more than 100 µM with SK-MEL-2 melanoma and 40.3 µM with RXF 393 renal. The TGI in the assay with SN12C renal is more than 100 µM; in the assay with M14 melanoma, 97.1 µM; in the assay on HOP-92 NSCLC, more than 100 µM; in the assay with HOP-62 NSCLC it was more than 100 µM; in the assay on SF-268 CNS it was more than 100 µM; in the assay on 786-0 renal, more than 100 µM. In addition, the TGI in the assay on HCT-116 colon, in the assay on NCI-H522 lung, in the assay on SK-MEL-2 melanoma and in the assay with RXF 393 renal was more than 100 µM each time.

In the case of `COc1ccc(/C=C/C(=O)c2ccc(Nc3ncnc4ccccc34)cc2)cc1OC`, the GI50 with SN12C renal is 10.9 µM; with M14 melanoma, 6.24 µM; in the assay on HOP-92 NSCLC, 2.05 µM; in the assay on HOP-62 NSCLC it was 9.87 µM; with SF-268 CNS, 6.55 µM; in the assay with 786-0 renal, 7.96 µM. Besides, the GI50 with HCT-116 colon is 0.547 µM; in the assay on NCI-H522 lung it was 7.45 µM; in the assay on SK-MEL-2 melanoma it was 13.9 µM; with RXF 393 renal, 2.2 µM. Moreover, the TGI with SN12C renal is more than 100 µM; in the assay on M14 melanoma, more than 100 µM; with HOP-92 NSCLC, 52.7 µM; in the assay on HOP-62 NSCLC, 66.5 µM; in the assay with SF-268 CNS it was more than 100 µM; in the assay on 786-0 renal, more than 100 µM. The TGI with HCT-116 colon is 16.8 µM; in the assay on NCI-H522 lung, 33.5 µM; in the assay on SK-MEL-2 melanoma, 44.8 µM; with RXF 393 renal it was 9.96 µM.
